Experimental data taken from the CombiSolv-Exp solvation set (Vermeire and Green 2021).

Experiment: solvent given as SMILES

CCCCCCCCC
Conditions | solvation free energy, 298 K [kJ/mol]
in Brc1ccccc1 | -24.1
in C1CCCCC1 | -26.1
in C1CCOC1 | -24.9
in C1COCCO1 | -21.3
in C=CCCCC | -25.5
in C=CCCCCCC | -24.9
in C=CCCCCCCCC | -24.6
in CC1COC(=O)O1 | -14.4
in CC#N | -17.2
in CC(=O)N(C)C | -19
in CC(=O)O | -18.8
in CC(=O)c1ccccc1 | -20.6
in CC(C)=O | -20.9
in CC(C)CC(C)(C)C | -24.9
in CC(C)CCCC(C)CCCC(C)CCCCC(C)CCCC(C)CCCC(C)C | -23
in CC(C)CCO | -21.8
in CC(C)O | -21
in CC(C)OC(C)C | -24.6
in CCBr | -24.9
in CCC#N | -19.6
in CCC(C)=O | -22.2
in CCCC#N | -21
in CCCC(=O)OCC | -23.3
in CCCC(C)=O | -22.6
in CCCCC | -25.6
in CCCCCC | -25.6
in CCCCCC(C)=O | -22.8
in CCCCCCC | -25.4
in CCCCCCCC | -25
in CCCCCCCCCC | -24.6
in CCCCCCCCCCCC | -24.2
in CCCCCCCCCCCCCCCC | -23.8
in CCCCCCCCO | -22.1
in CCCCCCOC(C)=O | -23.3
in CCCCO | -21.3
in CCCCOC(C)=O | -22.9
in CCCCOCCCC | -24.9
in CCCO | -20.7
in CCN(CC)CC | -25.4
in CCO | -20.3
in CCOC(=O)c1ccccc1C(=O)OCC | -19
in CCOC(C)=O | -22.3
in CCOCC | -25
in CCOCCOCCOCC | -22
in CCOc1ccccc1 | -22.7
in CN1CCCC1=O | -18
in CN(C)C=O | -18
in CN(C)P(=O)(N(C)C)N(C)C | -20.3
in CNC=O | -16
in CO | -18.4
in COC(C)=O | -21.2
in COCCO | -17.9
in COc1ccccc1 | -22.4
in CS(C)=O | -13.6
in Cc1ccc(C)cc1 | -24.8
in Cc1ccccc1 | -24.9
in Cc1ccccn1 | -22.8
in ClC(Cl)(Cl)Cl | -25.9
in ClC(Cl)Cl | -25.3
in ClCCCl | -22.3
in ClCCl | -23.9
in Clc1ccccc1 | -25
in FC(F)(F)C(F)(F)C(F)(F)C(F)(F)C(F)(F)C(F)(F)C(F)(F)C(F)(F)F | -16.4
in FC(F)(F)C(F)(F)C(F)(F)C(F)(F)C(F)(F)C(F)(F)F | -16.6
in Fc1ccccc1 | -24.1
in ICI | -15.6
in N#CCCCCC#N | -14.5
in N#Cc1ccccc1 | -20.8
in NC=O | -6.95
in NCCO | -9.37
in Nc1ccccc1 | -17.1
in O | 12.5
in O=C1CCCCC1 | -21.9
in O=C1CCCO1 | -15.5
in O=CN1CCOCC1 | -14.5
in OCCO | -8.49
in OCCOCCO | -11.5
in OCCOCCOCCO | -12.2
in OCCOCCOCCOCCO | -13.1
in OCc1ccccc1 | -18.2
in S=C=S | -25.8
in c1ccccc1 | -24.6
in c1ccncc1 | -21.5

FC(F)(F)CCl
Conditions | solvation free energy, 298 K [kJ/mol]
in CCCCCCCC(=O)OCC(COC(=O)CCCCCCC)OC(=O)CCCCCCC | -10.1
in O | 0.251

C=CC=CC=C
Conditions | solvation free energy, 298 K [kJ/mol]
in C=CCCCCCCCCCCCCCC | -15.8
in O | 0.837

CCCSCCC
Conditions | solvation free energy, 298 K [kJ/mol]
in O | -5.36

CCCCCCCCCCCCCCCCCCCCCC
Conditions | solvation free energy, 298 K [kJ/mol]
in CC(=O)N(C)C | -62.6
in CC(C)(C)O | -55.7
in CCC(C)=O | -56.9
in CCCCCCCCC=CCCCCCCCC(=O)OCC(COC(=O)CCCCCCCC=CCCCCCCCC)OC(=O)CCCCCCCC=CCCCCCCCC | -56.2
in CCCCOC(C)=O | -59.1
in CCOC(C)=O | -57.2
in CN(C)C=O | -62.8
in COC(C)(C)C | -62.2
in COC(C)=O | -54.4
in O | 20.4

CCc1cccnc1
Conditions | solvation free energy, 298 K [kJ/mol]
in O | -19.2

CCCCCCCCCCCCOC(=O)c1ccccc1C(=O)OCCCCCCCCCCCC
Conditions | solvation free energy, 298 K [kJ/mol]
in O | -24.8

Cc1cc(=O)n(-c2ccccc2)n1C
Conditions | solvation free energy, 298 K [kJ/mol]
in O | -55.6

O=C(c1ccccc1)N(O)c1ccccc1
Conditions | solvation free energy, 298 K [kJ/mol]
in O | -47.4

CC1=CCC2C(C1)C2(C)C (stereo not given)
Conditions | solvation free energy, 298 K [kJ/mol]
in O | 3.31

O=C(O)c1cccc2ccccc12
Conditions | solvation free energy, 298 K [kJ/mol]
in C=CCCCCCCC=C | -39.8
in C=CCCCCCCCCCCCCCC | -39.5
in O | -37.8

C=CC
Conditions | solvation free energy, 298 K [kJ/mol]
in C1CCC2CCCCC2C1 | -5.98
in C1COCCO1 | -5.69
in CC1COC(=O)O1 | -4.06
in CC(C)(C)O | -5.65
in CC(C)CC(C)(C)C | -6.74
in CC(C)CCO | -5.48
in CC(C)CO | -5.44
in CC(C)O | -5.52
in CCC(C)(C)O | -5.82
in CCC(C)=O | -6.44
in CCC(C)CO | -5.44
in CCC(C)O | -5.52
in CCC(O)CC | -5.48
in CCCC(C)O | -5.48
in CCCCC | -7.49
in CCCCCC | -7.32
in CCCCCCC | -7.28
in CCCCCCCC | -7.15
in CCCCCCCCC | -7.11
in CCCCCCCCCC | -7.03
in CCCCCCCCCCCCCCCC | -5.52
in CCCCCCCCO | -5.23
in CCCCCO | -5.52
in CCCCO | -5.9
in CCCO | -5.65
in CCOC(C)=O | -6.32
in CN1CCCC1=O | -5.19
in CN(C)C=O | -5.44
in CN(C)P(=O)(N(C)C)N(C)C | -5.82
in CO | -5.44
in COCCOCCOCCOC | -4.44
in CS(C)=O | -3.26
in Cc1ccc(C)cc1 | -6.61
in Cc1cccc(C)c1 | -6.61
in Cc1ccccc1C | -6.53
in ClC(Cl)(Cl)Cl | -7.7
in Nc1ccccc1 | -4.52
in O | 5.1
in OCCCOCCCO | -3.18
in OCCO | -1.88
in OCc1ccccc1 | -4.56
in c1ccccc1 | -6.86

CN(CC(F)(F)F)c1ccccc1
Conditions | solvation free energy, 298 K [kJ/mol]
in O | -8.03

CC(=O)OC1CC(C)CCC1C(C)C (stereo not given)
Conditions | solvation free energy, 298 K [kJ/mol]
in O | -10.8

NC(=O)c1ccccc1O
Conditions | solvation free energy, 298 K [kJ/mol]
in C1CCOC1 | -55.1
in C1COCCO1 | -54.4
in CC(C)(C)O | -50.5
in CC(C)=O | -54.5
in CC(C)CCO | -49.8
in CC(C)CO | -49.9
in CC(C)O | -51.3
in CC(C)OCCO | -53.6
in CC(O)COC(C)(C)C | -52.8
in CCC(C)O | -51
in CCCC(C)O | -50.5
in CCCCCCCCCCO | -48.4
in CCCCCCCCO | -48.9
in CCCCCCCO | -49.6
in CCCCCCO | -50.1
in CCCCCO | -50.3
in CCCCO | -50.6
in CCCCOC(C)=O | -51.4
in CCCCOCCCC | -44.1
in CCCCOCCO | -52.9
in CCCO | -51.3
in CCCOC(C)=O | -52
in CCCOCCO | -53.7
in CCO | -52.3
in CCOC(C)=O | -52.7
in CCOCCO | -54.5
in CO | -53.2
in COC(C)=O | -53.3
in COC(C)CCO | -53.1
in Fc1ccccc1 | -44.4
in O | -43.5

O=C(O)c1cccc([N+](=O)[O-])c1C(=O)O
Conditions | solvation free energy, 298 K [kJ/mol]
in C1CCOC1 | -80
in C1COCCO1 | -78.2
in CC(C)=O | -77.3
in CC(C)CO | -74.3
in CC(C)O | -76.8
in CCC(C)O | -75.8
in CCCCCCCO | -73.5
in CCCCCCO | -74
in CCCCCO | -74.5
in CCCCO | -74.9
in CCCO | -76.5
in CCOC(C)=O | -72.4
in COC(C)=O | -76.1
in O | -72.3

Clc1cc(Cl)c(-c2ccccc2)cc1Cl
Conditions | solvation free energy, 298 K [kJ/mol]
in CCCCCCCCO | -44.4

C#CCC
Conditions | solvation free energy, 298 K [kJ/mol]
in C1COCCO1 | -12.6
in CC(C)=O | -12.5
in CC(C)CC(C)(C)C | -9.87
in CN(C)C=O | -12.2
in COC(C)=O | -12.7
in O | -0.669

C=CC(C)(C)C
Conditions | solvation free energy, 298 K [kJ/mol]
in C=CCCCCCCCCCCCCCC | -12.4
in O | 6.57

CC(=O)C(C)=O
Conditions | solvation free energy, 298 K [kJ/mol]
in O | -18

CC(C)OC(=O)c1ccccc1C(=O)OC(C)C
Conditions | solvation free energy, 298 K [kJ/mol]
in O | -31

Nc1ccc(C(=O)O)cc1
Conditions | solvation free energy, 298 K [kJ/mol]
in C1COCCO1 | -61.1
in CC(C)CCO | -57.4
in CC(C)CO | -57.5
in CC(C)O | -59.5
in CCC(C)O | -58.7
in CCCC(C)O | -58
in CCCCCCCCCCO | -55.7
in CCCCCCCCO | -56.7
in CCCCCCCO | -57.1
in CCCCCCO | -57.8
in CCCCCO | -58.1
in CCCCO | -59
in CCCO | -59.7
in CCO | -61.2
in CCOCC | -56.9

FC(F)(F)c1ccccc1
Conditions | solvation free energy, 298 K [kJ/mol]
in O | -1.05

CCCCC(=O)CC(=O)CCCC
Conditions | solvation free energy, 298 K [kJ/mol]
in O | -17.3

CCCCCCCCCCCCO
Conditions | solvation free energy, 298 K [kJ/mol]
in CC(C)CC(C)(C)C | -36.1
in CCCCCC | -38.7
in CCCCCCCCC=CCCCCCCCC(=O)OCC(COC(=O)CCCCCCCC=CCCCCCCCC)OC(=O)CCCCCCCC=CCCCCCCCC | -42.8

CCOCCO
Conditions | solvation free energy, 298 K [kJ/mol]
in CCCCCC | -16.8
in CCCCCCC | -16.1
in COC(C)=O | -24.6
in ClC(Cl)(Cl)Cl | -20.4
in ClCCl | -25.4
in O | -28

Cc1cccc(O)c1C
Conditions | solvation free energy, 298 K [kJ/mol]
in CC(C)CC(C)(C)C | -26.2
in CCCCCC | -27.9
in O | -25.6
